In the assay the target is T1, Bifunctional epoxide hydrolase 2 (Homo sapiens, UniProt P34913).
T1 sequence (P34913 whole entry): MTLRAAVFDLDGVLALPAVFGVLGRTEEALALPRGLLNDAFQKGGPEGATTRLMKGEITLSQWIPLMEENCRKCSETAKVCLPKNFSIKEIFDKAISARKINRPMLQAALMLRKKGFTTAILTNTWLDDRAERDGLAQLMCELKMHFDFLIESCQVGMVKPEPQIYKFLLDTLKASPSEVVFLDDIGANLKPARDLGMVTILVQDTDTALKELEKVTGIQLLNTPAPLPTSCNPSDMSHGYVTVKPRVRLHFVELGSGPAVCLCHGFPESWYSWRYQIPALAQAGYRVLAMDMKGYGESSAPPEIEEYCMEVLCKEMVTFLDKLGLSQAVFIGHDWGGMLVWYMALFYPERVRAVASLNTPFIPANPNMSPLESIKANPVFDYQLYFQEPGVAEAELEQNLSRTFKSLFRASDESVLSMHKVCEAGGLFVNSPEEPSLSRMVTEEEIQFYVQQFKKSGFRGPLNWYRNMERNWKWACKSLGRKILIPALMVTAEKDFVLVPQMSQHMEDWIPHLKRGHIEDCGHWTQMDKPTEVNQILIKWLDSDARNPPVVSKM
Nature of the assay: Inhibition of recombinant human soluble epoxide hydrolase using PHOME as substrate incubated for 5 mins followed by substrate addition by fluorescence assay.
On to `CCOC(=O)C1=C(c2ccccc2)NC(=O)NC1c1ccc(NC(=O)c2ccccc2C(=O)O)cc1` (stereo not drawn), for which the IC50 came out at 1.92 nM.

In the case of `CCOC(=O)C1=C(c2ccccc2)NC(=O)NC1c1ccc(NC(=O)c2ccccc2)cc1` (stereo not drawn), the IC50 turned out to be 1.22 nM.

Regarding `CCOC(=O)C1=C(c2ccccc2)NC(=O)NC1c1ccc(NC(=O)c2ccc([N+](=O)[O-])cc2)cc1` (stereo not drawn), the half-maximal inhibitory concentration (IC50) is 2 nM.

With `CCOC(=O)C1=C(c2ccccc2)NC(=O)NC1c1ccc(NC(=O)c2ccc(Cl)cc2)cc1` (stereo not drawn), the IC50 turned out to be 0.48 nM.

As to `CCOC(=O)C1=C(c2ccccc2)NC(=O)NC1c1ccc(NC(=O)CCC(=O)O)cc1` (stereo not drawn), the IC50 was 2.22 nM.

Consider `CCOC(=O)C1=C(c2ccccc2)NC(=O)NC1c1ccc(NC(=O)c2ccc(OC)cc2)cc1` (stereo not drawn), for which the IC50 is 1.82 nM.

On to `CCOC(=O)C1=C(c2ccccc2)NC(=O)NC1c1ccc(NC(=O)c2ccc(F)cc2)cc1` (stereo not drawn), for which the IC50 turned out to be 0.96 nM.

As for `CCOC(=O)C1=C(c2ccccc2)NC(=O)NC1c1ccc(NC(=O)c2ccc(C)cc2)cc1` (stereo not drawn), the IC50 was found to be 0.48 nM.

For the origin of these results see ChEMBL document CHEMBL4190176 (Medchemcomm, 2016).
